What all share (test): NCI 60 single concentration growth inhibition
What all share (assay type): cell-based, human

The test system of one test is PC-3. Conditions: PC-3, Prostate cancer. Here is the method:
(§1) The synthesized dichlorobenzimidazoles 10a–p were assayed for their influence on divers cancer cell lines according to the method presented in the Additional file A.
(§2) 5. Screening of cytotoxic activity against a panel of sixty human tumor cell lines
(§3) The selected compounds by NCI were evaluated for their anticancer activity in a two-stage process. First, these compounds were screened against the full NCI 60 cell lines panel at a single high dose of 10 µM. Then, the output from the single dose screen is reported as a mean graph. […]
(§4) at five different minimal concentrations.
(§5) Assay protocol. The human tumor cell lines of the cancer screening panel are grown in RPMI 1640 medium containing 5% fetal bovine serum and 2 mM L-glutamine. For a typical screening experiment, cells are inoculated into 96 well microtiter plates in 100 µL at plating densities ranging from 5000 to 40,000 cells/well depending on the doubling time of individual cell lines. After cell inoculation, the microtiter plates are incubated at 37 °C, 5% CO 2, 95% air and 100% relative humidity for 24 h prior to addition of the experimental drugs.
(§6) After 24 h, two plates of each cell line are fixed in situ with TCA, to represent a measurement of the cell population for each cell line at the time of drug addition (Tz). The experimental drugs are solubilized in dimethyl sulfoxide at 400-fold the desired final maximum test concentration and stored frozen prior to use. At the time of drug addition, an aliquot of frozen concentrate is thawed and diluted to twice the desired final maximum test concentration with complete medium containing 50 µg/mL gentamicin. Additional four, 10-fold or ½ log serial dilutions are made to provide a total of five drug concentrations plus control.
(§7) Aliquots of […] of these different drug dilutions are added to the appropriate microtiter wells already containing […] of medium, resulting in the required final drug concentrations.
(§8) Following drug addition, the plates are incubated for an additional 48 h at 37 °C, 5% CO 2, 95% air, and 100% relative humidity. For adherent cells, the assay is terminated by the addition of cold TCA.
(§9) Cells are fixed in situ by the gentle addition of 50 µL of cold 50% (w/v) TCA (final concentration, 10% TCA) and incubated for 60 min at 4 °C. The supernatant is discarded, and the plates are washed five times with tap water and air dried. Sulforhodamine B (SRB) solution ([…]) at 0.4% (w/v) in 1% acetic acid is added to each well, and plates are incubated for 10 min at room temperature. After staining, unbound dye is removed by washing five times with 1% acetic acid and the plates are air dried. Bound stain is subsequently solubilized with 10 mM trizma base, and the absorbance is read on an automated plate reader at a wavelength of 515 nm. For suspension cells, the methodology is […]
(§10) the same except that the assay is terminated by fixing settled cells at the bottom of the wells by gently adding 50 µl of 80% TCA (final concentration, 16% TCA). Using the seven absorbance measurements [time zero, (Tz), control growth, (C), and test growth in the presence of drug at the five concentration levels (Ti)], the percentage growth is calculated at each of the drug concentrations […]
(§11) Percentage growth inhibition is calculated as: [(Ti Tz)/(C–Tz)] x 100 for concentrations for which Ti>/=Tz and [(Ti-Tz)/Tz] x 100 for concentrations for which Ti < Tz.
(§12) Three dose response parameters are calculated for each experimental agent. Growth […]
(§13) concentration resulting in a 50% reduction in the net protein increase (as measured by SRB staining) in control cells during the drug incubation. The drug concentration resulting in total growth inhibition (TGI) is calculated from Ti = Tz. […]
(§14) reduction in the measured protein at the end of the drug treatment as compared to that at the beginning) indicating a net loss of cells following treatment is calculated from [(Ti–Tz)/Tz] x 100 =
(§15) _50. Values are calculated for each of these three parameters if the level of activity is reached; […]

In a further test the test system is SK-MEL-2. The following applies: SK-MEL-2, Melanoma. Here is the method: as §1, §2, §3, §4, §5, §6, §7, §8, §9, §10, §11, §12, §13, §14, §15
The test system of another test is HOP-62. The following applies: HOP-62, Non-small cell lung cancer. The method, then: as §1, §2, §3, §4, §5, §6, §7, §8, §9, §10, §11, §12, §13, §14, §15
The subject of a further test is RXF 393. Conditions: RXF 393, Renal cancer. Here is the method:
as §1, §2, §3, §4, §5, §6, §7, §8, §9, §10, §11, §12, §13, §14, §15

The test system of the next test is UACC-62. Conditions: UACC-62, Melanoma. Here is the method: as §1, §2, §3, §4, §5, §6, §7, §8, §9, §10, §11, §12, §13, §14, §15
In the next test the test system is T-47D. The following applies: Breast cancer. Here is the method:
as §1, §2, §3, §4, §5, §6, §7, §8, §9, §10, §11, §12, §13, §14, §15

The next test has as its system OVCAR-8. Conditions: OVCAR-8, Ovarian cancer. Here is the method: as §1, §2, §3, §4, §5, §6, §7, §8, §9, §10, §11, §12, §13, §14, §15
The next test concerns UACC-257. Conditions: UACC-257, Melanoma. Here is the method:
as §1, §2, §3, §4, §5, §6, §7, §8, §9, §10, §11, §12, §13, §14, §15

The test system of the next test is SF-295. Conditions: SF-295, CNS cancer. Here is the method:
as §1, §2, §3, §4, §5, §6, §7, §8, §9, §10, §11, §12, §13, §14, §15

Another test deals with HS 578T. Conditions: Breast cancer. The method, then:
as §1, §2, §3, §4, §5, §6, §7, §8, §9, §10, §11, §12, §13, §14, §15

For a further test, the system named is EKVX. Conditions: Non-small cell lung cancer. Here is the method:
as §1, §2, §3, §4, §5, §6, §7, §8, §9, §10, §11, §12, §13, §14, §15

The test system of another test is MCF7. Conditions: MCF7, Breast cancer. The method, then: as §1, §2, §3, §4, §5, §6, §7, §8, §9, §10, §11, §12, §13, §14, §15
Another test concerns MDA-MB-231/ATCC. Conditions: Breast cancer. Here is the method:
as §1, §2, §3, §4, §5, §6, §7, §8, §9, §10, §11, §12, §13, §14, §15

A further test concerns OVCAR-5. Conditions: OVCAR-5, Ovarian cancer. The method, then: as §1, §2, §3, §4, §5, §6, §7, §8, §9, §10, §11, §12, §13, §14, §15
In the next test the test system is BT-549. The following applies: BT-549, Breast cancer. The method, then:
as §1, §2, §3, §4, §5, §6, §7, §8, §9, §10, §11, §12, §13, §14, §15

The test system of another test is SN12C. The following applies: Renal cancer. The method, then:
as §1, §2, §3, §4, §5, §6, §7, §8, §9, §10, §11, §12, §13, §14, §15

For the next test, the system named is SF-268. Conditions: SF-268, CNS cancer. Here is the method: as §1, §2, §3, §4, §5, §6, §7, §8, §9, §10, §11, §12, §13, §14, §15
A further test relates to 786-0. Conditions: 786-0, Renal cancer. Here is the method: as §1, §2, §3, §4, §5, §6, §7, §8, §9, §10, §11, §12, §13, §14, §15
A further test has as its system SK-MEL-5. The following applies: SK-MEL-5, Melanoma. The method, then: as §1, §2, §3, §4, §5, §6, §7, §8, §9, §10, §11, §12, §13, §14, §15
The test system of a further test is A549/ATCC. The following applies: Non-small cell lung cancer. The method, then:
as §1, §2, §3, §4, §5, §6, §7, §8, §9, §10, §11, §12, §13, §14, §15

The next test relates to M14. The following applies: M14, Melanoma. Here is the method:
as §1, §2, §3, §4, §5, §6, §7, §8, §9, §10, §11, §12, §13, §14, §15

The subject of another test is ACHN. Conditions: Renal cancer. Here is the method:
as §1, §2, §3, §4, §5, §6, §7, §8, §9, §10, §11, §12, §13, §14, §15

Where only a bound is given, the exact number is not on record here.

`CCOC(=O)C(C)Oc1ccc(C=NNC(=O)Cn2c(-c3ccc(OC)cc3)nc3cc(Cl)c(Cl)cc32)cc1` (centres unmarked) [Compound 10j, Ethyl-2-(4-((2-(2-(5,6-dichloro-2-(4-methoxyphenyl)-1H-benzo[d]imidazol-1-yl)acetyl) hydrazono)methyl)phenoxy)propanoate]: the inhibition at 10 µM in the test on PC-3 (Homo sapiens, read-out: GI%) was 38.5%; in the test on SK-MEL-2 (Homo sapiens, read-out: GI%) it was 8.36%; in the test with HOP-62 (Homo sapiens, read-out: GI%) it was below 5%; in the test with RXF 393 (Homo sapiens, read-out: GI%) it was 43.7%; with UACC-62 (Homo sapiens, read-out: GI%), 20.1%; in the test with T-47D (Homo sapiens, T47D, read-out: GI%), 72.8%. The inhibition at 10 µM is 20.7% in the test on OVCAR-8 (Homo sapiens, read-out: GI%); below 5% in the test with UACC-257 (Homo sapiens, read-out: GI%); 21% in the test on SF-295 (Homo sapiens, read-out: GI%); below 5% in the test with HS 578T (Homo sapiens, read-out: GI%); 21.7% in the test on EKVX (Homo sapiens, read-out: GI%); 39% with MCF7 (Homo sapiens, read-out: GI%). For the same compound, the inhibition at 10 µM in the test with MDA-MB-231/ATCC (Homo sapiens, read-out: GI%) was 17.2%; in the test on OVCAR-5 (Homo sapiens, read-out: GI%) it was below 5%; with BT-549 (Homo sapiens, read-out: GI%) it was 11.8%; in the test on SN12C (Homo sapiens, read-out: GI%) it was 51.9%; in the test with SF-268 (Homo sapiens, read-out: GI%), 14.3%; in the test with 786-0 (Homo sapiens, read-out: GI%), 11.3%. Also, the inhibition at 10 µM was 25.2% in the test with SK-MEL-5 (Homo sapiens, read-out: GI%); below 5% in the test on A549/ATCC (Homo sapiens, read-out: GI%); 9.09% in the test with M14 (Homo sapiens, read-out: GI%); 18% in the test with ACHN (Homo sapiens, read-out: GI%).
Regarding “3-(4-((2-(2-(5,6-Dichloro-2-(4-methoxyphenyl)-1H-benzo[d]imidazol-1-yl)acetyl)hydrazono)methyl)phenoxy)propanoic acid [Compound 10i]”, the GI% with PC-3 (10 μM) was 19.27%; in the test on SK-MEL-2 (10 μM), “– (GI% < 5%)”; with HOP-62 (10 μM), “– (GI% < 5%)”; in the test with RXF 393 (10 μM), “– (GI% < 5%)”; in the test on UACC-62 (10 μM) it was 10.17%; in the test with T-47D (10 μM) it was 27.22%. Moreover, the GI% entry is recorded as “– (GI% < 5%)” in the test on OVCAR-8 (10 μM); “– (GI% < 5%)” with UACC-257 (10 μM); 15.06% with SF-295 (10 μM); “– (GI% < 5%)” with HS 578T (10 μM); 20.53% in the test with EKVX (10 μM); 28.47% in the test on MCF7 (10 μM). Moreover, the GI% is on record as 12.19% in the test on MDA-MB-231/ATCC (10 μM); “– (GI% < 5%)” with OVCAR-5 (10 μM); 11.38% in the test on BT-549 (10 μM); “– (GI% < 5%)” with SN12C (10 μM); “– (GI% < 5%)” with SF-268 (10 μM); 5.33% in the test on 786-0 (10 μM). Also, the GI% in the test on SK-MEL-5 (10 μM) is 14.39%; with A549/ATCC (10 μM), “– (GI% < 5%)”; in the test on M14 (10 μM), “– (GI% < 5%)”; in the test on ACHN (10 μM), 5.11%.

Values taken from article PMC11844072, “Novel 5,6-dichlorobenzimidazole derivatives as dual BRAFWT and BRAFV600E inhibitors: design, synthesis, anti-cancer activity and molecular dynamics simulations” (BMC Chemistry, 2025).
